# pIC50: −log10 of the molar value. Calls of active or inactive are those of the source. The rule behind the calls is not given here.
# Legend:
# HCT-116 [1] = experiment: Antiproliferative activity against human HCT116 cells after 72 hrs by MTT assay; assay type: functional, cell-based; settings: HCT-116, 72 h
# K562 [2] = experiment: Cell cycle arrest in human K562 cells assessed as accumulation at sub-G1 phase at 1 uM up to 48 hrs by propidium iodide staining based flow cytometry relative to control; assay type: functional
# TMK-1 [3] = experiment: Induction of ROS generation in human TMK1 cells at 0.1 to 1 uM after 30 mins by H2DCFDA staining based flow cytometry; assay type: functional, cell-based
# MKN-45 [4] = experiment: Induction of apoptosis in human MKN45 cells at 1 uM after 24 hrs by Annexin V-FITC staining based flow cytometry relative to control; assay type: functional
# HeLa = experiment: Antiproliferative activity against human HeLa cells after 72 hrs by MTT assay; assay type: functional, cell-based
# [5] = molecular target: T1, DNA topoisomerase 1 (Homo sapiens) (UniProt P11387); experiment: Inhibition of human topoisomerase-1 at 10 uM using supercoiled pBR322 DNA as substrate after 30 mins by agarose gel electrophoresis method
# T1 sequence (whole entry): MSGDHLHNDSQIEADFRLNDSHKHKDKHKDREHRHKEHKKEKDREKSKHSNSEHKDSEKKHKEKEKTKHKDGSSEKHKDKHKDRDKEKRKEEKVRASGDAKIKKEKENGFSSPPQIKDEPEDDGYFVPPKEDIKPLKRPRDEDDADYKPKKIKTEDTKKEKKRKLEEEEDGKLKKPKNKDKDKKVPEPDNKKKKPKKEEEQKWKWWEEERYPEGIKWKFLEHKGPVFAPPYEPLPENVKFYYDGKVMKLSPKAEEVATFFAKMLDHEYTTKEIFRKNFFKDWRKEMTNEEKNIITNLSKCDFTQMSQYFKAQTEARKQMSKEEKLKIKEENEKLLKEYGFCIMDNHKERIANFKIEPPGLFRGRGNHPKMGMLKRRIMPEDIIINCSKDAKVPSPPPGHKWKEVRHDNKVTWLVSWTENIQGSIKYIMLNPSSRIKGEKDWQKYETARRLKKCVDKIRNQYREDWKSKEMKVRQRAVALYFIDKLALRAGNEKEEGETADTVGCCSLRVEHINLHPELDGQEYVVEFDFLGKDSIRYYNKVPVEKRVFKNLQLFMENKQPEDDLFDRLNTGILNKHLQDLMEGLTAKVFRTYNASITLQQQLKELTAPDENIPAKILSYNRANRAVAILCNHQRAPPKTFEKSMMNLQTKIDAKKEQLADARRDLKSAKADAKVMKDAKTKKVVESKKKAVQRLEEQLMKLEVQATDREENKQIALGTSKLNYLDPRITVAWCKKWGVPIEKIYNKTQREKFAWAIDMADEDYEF
# [6] = Drug uptake in human K562 cells at 2 uM after 1 to 24 hrs by flow cytometry; assay type: ADME, cell-based; settings: k562, 2 µM
# [7] = Resistance index, ratio of IC50 for human K562/4 cells to IC50 for human K562 cells; assay type: functional
# Lymphocyte = experiment: Cytotoxicity against human lymphocytes assessed as reduction in cell viability at 25 uM after 72 hrs by MTT assay; assay type: cell-based
# [8] = Substrate activity at P-gp in human K562/4 cells assessed as test compound accumulation at 2 uM after 1 to 24 hrs by flow cytometry; assay type: ADME, cell-based
# HCT-116 [9] = experiment: Antiproliferative activity against p53 knockout human HCT116 cells after 72 hrs by MTT assay; assay type: functional, cell-based; settings: HCT-116, 72 h
# Homo sapiens = species: Homo sapiens; experiment: Cell cycle arrest in human K562/4 cells assessed as accumulation at G2/M phase at 1 uM after 24 hrs by propidium iodide staining based flow cytometry; assay type: functional
# TMK-1 [10] = experiment: Induction of apoptosis in human TMK1 cells at 1 uM after 24 hrs by Annexin V-FITC staining based flow cytometry relative to control; assay type: functional
# TMK-1 [11] = experiment: Induction of apoptosis in human TMK1 cells after 24 hrs by Annexin V-FITC staining based flow cytometry; assay type: functional, cell-based
# [12] = Cell cycle arrest in human K562/4 cells assessed as accumulation at sub-G1 phase at 1 uM up to 48 hrs by propidium iodide staining based flow cytometry relative to control; assay type: functional
# MKN-45 [13] = experiment: Induction of ROS generation in human MKN45 cells at 0.1 to 1 uM after 30 mins by H2DCFDA staining based flow cytometry; assay type: functional, cell-based
# K562 [14] = experiment: Cell cycle arrest in human K562 cells assessed as accumulation at G2/M phase at 1 uM after 24 hrs by propidium iodide staining based flow cytometry; assay type: functional
# MKN-45 [15] = experiment: Induction of apoptosis in human MKN45 cells after 24 hrs by Annexin V-FITC staining based flow cytometry; assay type: functional, cell-based
# [16] = Resistance index, ratio of IC50 for p53 knockout human HCT116 cells to IC50 for human HCT116 cells; assay type: functional
# K562 [17] = experiment: Antiproliferative activity against human K562 cells after 72 hrs by MTT assay; assay type: functional, cell-based; settings: K562, 72 h
# [18] = Antiproliferative activity against human K562/4 cells after 72 hrs by MTT assay; assay type: functional, cell-based; settings: K562/4, 72 h
# L1210 = experiment: Antiproliferative activity against mouse L1210 cells after 48 hrs by MTT assay; assay type: functional, cell-based; settings: L1210, 48 h
# CCRF-CEM = experiment: Antiproliferative activity against human CEM cells after 72 hrs by MTT assay; assay type: functional, cell-based
compound,measurement,setting,value
O=C1c2ccccc2C(=O)c2c1c(O)c1occ(C(=O)NC3CCCNC3)c1c2O (racemic),pIC50,HCT-116 [1],6.22
same,Activity,K562 [2],>70%
same,Activity,TMK-1 [3],Active
same,Activity,MKN-45 [4],60 - 90%
same,pIC50,HeLa,6.15
same,inhibition,[5],Active
same,Drug uptake,[6],Active
same,Ratio IC50,[7],2.1
same,Activity,Lymphocyte,Non-Toxic
same,Activity,[8],Not Active
same,pIC50,HCT-116 [9],6.10
same,Activity,Homo sapiens,Active
same,Activity,TMK-1 [10],60 - 90%
same,Activity,TMK-1 [11],Dose-dependent effect
same,Activity,[12],>70%
same,Activity,MKN-45 [13],Active
same,Activity,K562 [14],Active
same,Activity,MKN-45 [15],Dose-dependent effect
same,Ratio IC50,[16],1.3
same,pIC50,K562 [17],6.22
same,pIC50,[18],5.92
same,pIC50,L1210,6.15
same,pIC50,CCRF-CEM,6.05
